Experiments:
SARS-CoV-2 Mpro = SARS-CoV-2 Mpro (UniProt P0DTD1)
MERS-CoV Mpro = MERS-CoV Mpro (UniProt K9N7C7)

O=C(NCc1cccs1)[C@@H]1CN(C(=O)c2cccnc2)CCN1c1ccc(Cl)c(Cl)c1
IC50 (SARS-CoV-2 Mpro): 0.123 µM
IC50 (MERS-CoV Mpro): 57.5 µM

— the ASAP Discovery antiviral challenge data (2025)
